Data as given in patent US9334280B2, “Synthetic rigidin analogues as anticancer agents, salts, solvates and prodrugs thereof, and method of producing same” (New Mexico Technical Research Foundation, priority 2012, dated 2016).
Where two headings read alike, the source gives them in different places.

Columns and labels:
[1] = tested on: MCF-7 mammary gland adenocarcinoma cells; assay: MTT antiproliferative assay, MCF-7; assay type: cell-based; conditions: Homo sapiens, MCF7, MTT, ± SD, read-out: GI50 in vitro Values, MCF-7
Method: (§1) Human T-cell leukemia cell line Jurkat (ATCC TIB-152, E6-1 clone) was cultured in RPMI-1640 (Invitrogen) supplemented with 10% FBS (Invitrogen), 100 mg/L penicillin G, 100 mg/L streptomycin, 1.0 mM sodium pyruvate, 1.5 g/L sodium bicarbonate, and 4.5 g/L glucose (all from Sigma). Human cervical cancer cell line HeLa (ATCC S3) was cultured in DMEM (Invitrogen) supplemented with 10% FBS, 100 mg/L penicillin G, and 100 mg/L streptomycin. MCF-7 (human mammary carcinoma) cells were cultured in DMEM supplemented with 1.0 mM sodium pyruvate, 1% GlutaMax™-1 (Invitrogen), 100 μg/mL penicillin, 100 μg/mL streptomycin, and 10% FBS. Human uterine sarcoma MES-SA and MES-SA/Dx5 cells were cultured in RPMI-1640 medium supplemented with 10% FBS, 100 mg/L penicillin G and 100 mg/L streptomycin. All cells were incubated at 37° C. in a humidified atmosphere with 5% CO2. The other cell lines were maintained in a similar fashion as previously described.
(§2) To evaluate antiproliferative properties of the compounds of Formula I, mitochondrial dehydrogenase activities were measured using the MTT assay. The cell lines were prepared by trypsinizing and seeding […] cells per well into microplates. All compounds were reconstituted in dimethyl sulfoxide (DMSO) at a concentration of either 100 mM or 25 mM prior to treatment. The cells were grown for 24 hrs before treatment at concentrations ranging from 0.004 to 100 microM and incubated for 48 hrs in 200 microL media. 20 microL of MTT reagent in serum free medium (5 mg/mL) was added to each well and incubated further for 2 hrs. Media was removed and the resulting formazan crystals were re-solubilized in 100 microL of DMSO and the optical density (OD) was measured using a Thermomax Molecular Device plate reader at a wavelength of 490 nm. The experiments were performed in quadruplicate and repeated at least twice for each compound per cell line. Cells treated with 0.1% DMSO were used as a negative control, while phenyl arsine oxide (PAO) was used as a positive killing control.
(§3) Human cancer cell lines were obtained from the American Type Culture Collection (ATCC, Manassas, Va., USA), the European Collection of Cell Culture (ECACC, Salisbury, UK) and the Deutsche Sammlung von Mikroorganismen and Zellkulturen (DSMZ, Braunschweig, Germany). Human cervical adenocarcinoma HeLa cells were cultured in DMEM supplemented with 10% fetal bovine serum (FBS). Human mammary carcinoma MCF-7 cells were cultured in RPMI supplemented with 10% FBS. The U87 and U373 cells were cultured in DMEM culture medium (Lonza code 12-136F, Vervier, Belgium), while the SKMEL-28 and A549 cells were cultured in RPMI culture medium (Lonza; code 12-115F) supplemented with 10% heat-inactivated FBS (Lonza, FBS South America code DE14-801F). […] All cell lines were cultured in T25 flasks, maintained and grown at 37° C., 95% humidity, 5% CO2.
(§4) To evaluate antiproliferative properties of the synthesized compounds, the MTT assay was used. The cell lines were assessed by trypsinizing each cell line and seeding 4×10^3 cells per well into 96-well plates. All compounds were dissolved in DMSO at a concentration of either 100 mM or 50 mM prior to cell treatment. The cells were grown for 24 h and then treated with compounds at concentrations ranging from 0.04 to 100 μM and incubated for 48 h in 200 μL media. 20 μL of MTT reagent in serum free medium (5 mg/mL) was added to each well and incubated further for 2 h. Media was removed, and the resulting formazan crystals were re-solubilized in 200 μL of DMSO. A490 was measured using a Thermomax Molecular Device plate reader. The experiments were performed in quadruplicate and repeated at least twice for each compound per cell line. Cells treated with 0.1% DMSO were used as a control, and 1 μM phenyl arsine oxide (PAO) was used as a positive killing control.

[2] = tested on: HeLa, MCF-7, U-87 and A549 cells; assay: MTT antiproliferative activity, statements for four-cell-line panel; assay type: cell-based, human; conditions: MCF-7, U-87, A549, 48 h
Method: The antiproliferative effects of compounds 13 and 18-23 were studied in a more challenging cell line panel that, in addition to the previously utilized HeLa and MCF-7, contained in vitro models for cancers known to be associated with poor prognoses, such as the U-87 human glioblastoma and A549 human non-small-cell lung (NSCLC) carcinoma.
as §4

[3] = tested on: HeLa cervical adenocarcinoma cells; assay: MTT antiproliferative assay, HeLa; assay type: cell-based; conditions: Homo sapiens, MTT, ± SD, read-out: GI50 in vitro Values, HeLa
Method: as §1, §2, §3, §4

[4] = tested on: A549 non-small-cell lung cancer cells; assay: MTT antiproliferative assay, A549; assay type: cell-based; conditions: Homo sapiens
Method: as §2, §3, §4

U-87 glioblastoma cells = assay: MTT antiproliferative assay, U-87; assay type: cell-based; conditions: Homo sapiens, Table 6, 48 h, ± SD, read-out: GI50 in vitro Values, U-87
Method: as §3, §4

U373 glioblastoma cells [5] = assay: Quantitative videomicroscopy, U373; assay type: cell-based, human; conditions: U373, at MTT-based GI50 value
Excerpt: (§5) Poor prognoses of glioblastoma, melanoma and NSCLC patients are generally attributed to the drug resistant nature of these malignanciesand therefore it was encouraging that 7-deazahypoxanthines 13 and 18-23 were active against the U87 human glioblastoma and A549 NSCLC carcinoma cell lines. Since tubulin-targeting agents are generally poorly effective against cancer cells resistant to the induction of apoptosis, compound 22 was further evaluated against U373 human glioblastoma and SKMEL human melanoma cells, reported to display apoptosis resistance. […] Computer-assisted phase-contrast microscopy (quantitative videomicroscopy) was utilized to confirm cell death as the principal mechanism of action associated with this compound's in vitro growth inhibitory effects in these cell lines.
(§6) The effects of 22 on the viability of human U373 glioblastoma and SKMEL melanoma cells were characterized in vitro using computer-assisted phase contrast video microscopy, as described elsewhere.

U373 glioblastoma cells [6] = assay: MTT antiproliferative assay, U373; assay type: cell-based, human; conditions: U373 MG
Method: as §2, §3
as §4, with “Cells treated with 0.1% DMSO were used as a control, and 1 μM phenyl arsine oxide (PAO) was used as a positive killing control.” left out

SKMEL melanoma cells = assay: Quantitative videomicroscopy, SKMEL; assay type: cell-based, human; conditions: at MTT-based GI50 value
Excerpt: as §5, §6

SKMEL-28 melanoma cells = assay: MTT antiproliferative assay, SKMEL-28; assay type: cell-based, human; conditions: SK-MEL-28
Method: as §2, §3
as §4, with “Cells treated with 0.1% DMSO were used as a control, and 1 μM phenyl arsine oxide (PAO) was used as a positive killing control.” left out

[7] = tested on: Hs683 anaplastic oligodendroglioma cells; assay: MTT antiproliferative assay, Hs683; assay type: cell-based; conditions: Homo sapiens, Hs 683, Table 2, 48 h, read-out: GI50 in vitro values, Hs683
Method: as §2

[8] = tested on: UM-SCC22B head and neck metastases cells; assay: MTT antiproliferative assay, UM-SCC22B; assay type: cell-based; conditions: Homo sapiens, UMSCC22B, Table 1A, 48 h, read-out: Concentration required to reduce the viability of cells by 50%, UM-SCC22B
Method: as §2

B16F10 melanoma cells = assay: MTT antiproliferative assay, B16F10; assay type: cell-based; conditions: Mus musculus, B16-F10, Table 2, 48 h, read-out: GI50 in vitro values, B16F10
Method: as §2

[9] = tested on: UM-SCC10B head and neck metastases cells; assay: MTT antiproliferative assay, UM-SCC10B; assay type: cell-based; conditions: Table 1A, 48 h, read-out: Concentration required to reduce the viability of cells by 50%, UM-SCC10B
Method: as §2

[10] = tested on: UM-SCC10A head and neck cancer cells; assay: MTT antiproliferative assay, UM-SCC10A; assay type: cell-based; conditions: UMSCC-10A, Table 1A, 48 h, read-out: Concentration required to reduce the viability of cells by 50%, UM-SCC10A
Method: as §2

[11] = tested on: UM-SCC22A head and neck cancer cells; assay: MTT antiproliferative assay, UM-SCC22A; assay type: cell-based; conditions: Table 1A, 48 h, read-out: Concentration required to reduce the viability of cells by 50%, UM-SCC22A
Method: as §2

SW620 colon cancer cells = assay: MTT antiproliferative assay, SW620; assay type: cell-based; conditions: Homo sapiens, SW-620, Table 1A, 48 h, read-out: Concentration required to reduce the viability of cells by 50%, SW620
Method: as §2

GEO colon cancer cells = assay: MTT antiproliferative assay, GEO; assay type: cell-based; conditions: Table 1A, 48 h, read-out: Concentration required to reduce the viability of cells by 50%, GEO
Method: as §2

HCT8 colon cancer cells = assay: MTT antiproliferative assay, HCT8; assay type: cell-based; conditions: Homo sapiens, HCT-8, Table 1A, 48 h, read-out: Concentration required to reduce the viability of cells by 50%, HCT8
Method: as §2

[12] = tested on: MES-SA/Dx5 uterine sarcoma cells (overexpress p-gp); assay: MTT antiproliferative assay, MDR MES-SA/Dx5; assay type: cell-based, human
Method: as §1, §2
The cells of such tumors are referred to as multidrug resistant (MDR). Thus, we assessed the compounds of Formula I for antiproliferative activity in an MDR cancer cell line. This was done using the uterine sarcoma cells, MES-SA/Dx5, which overexpress p-gp. The parental drug-responsive MES-SA cell line was used as control.

SW480 colon cancer cells = assay: MTT antiproliferative assay, SW480; assay type: cell-based; conditions: Homo sapiens, Table 1A, 48 h, read-out: Concentration required to reduce the viability of cells by 50%, SW480
Method: as §2

[13] = tested on: MES-SA uterine sarcoma cells; assay: MTT antiproliferative assay, MES-SA; assay type: cell-based; conditions: Homo sapiens, Table 3, parental drug-responsive cell line, read-out: GI50 in vitro Values, MES-SA
Method: as §1, with “The other cell lines were maintained in a similar fashion as previously described.” left out
To evaluate antiproliferative properties of the compounds of Formula I, mitochondrial dehydrogenase activities were measured using the MTT assay. […] Media was removed and the resulting formazan crystals were re-solubilized in 100 microL of DMSO and the optical density (OD) was measured using a Thermomax Molecular Device plate reader at a wavelength of 490 nm. […]
The cells of such tumors are referred to as multidrug resistant (MDR). Thus, we assessed the compounds of Formula I for antiproliferative activity in an MDR cancer cell line. […]

[14] = Table 6, 48 h, ± SD, read-out: GI50 in vitro Values, A549
[15] = Homo sapiens, Table 2, 48 h, MTT, read-out: GI50 in vitro values, U373
[16] = Table 2, 48 h, read-out: GI50 in vitro values, A549
[17] = Homo sapiens, Table 2, 48 h, MTT, read-out: GI50 in vitro values, SKMEL-28

| SMILES | GI50 ([1]; Table 6, 48 h) | GI50 ([3]; Table 6, 48 h) | GI50 [4, 14] | GI50 (U-87 glioblastoma cells) | GI50 [7] | GI50 ([1]; Table 1, 48 h treatment) | GI50 (B16F10 melanoma cells) | GI50 (U373 glioblastoma cells [6]; [15]) | GI50 ([3]; Table 1, 48 h treatment) | GI50 [4, 16] | GI50 (SKMEL-28 melanoma cells; [17]) | other results |
| --- | --- | --- | --- | --- | --- | --- | --- | --- | --- | --- | --- | --- |
| Cc1nc(=O)c2c(-c3cccnc3)c(C(=O)c3ccccc3)[nH]c2[nH]1 [Compound 21, 6-Benzoyl-2-methyl-5-(pyridin-3-yl)-1H-pyrrolo[2,3-d]pyrimidin-4(7H)-one] | 4700 ± 800 nM | 3100 ± 100 nM | 12000 ± 1400 nM | 9230 ± 2130 nM | – | – | – | – | – | – | – | antiproliferative potencies (in words) [2]: single-digit micromolar potencies |
| Cc1nc(=O)c2c(-c3cncc(Br)c3)c(C(=O)c3ccccc3)[nH]c2[nH]1 [Compound 22, 6-Benzoyl-5-(5-bromopyridin-3-yl)-2-methyl-1H-pyrrolo[2,3-d]pyrimidin-4(7H)-one] | 610 ± 10 nM | 490 ± 50 nM | 1100 ± 400 nM | 2400 ± 600 nM | – | – | – | – | – | – | – | mechanism of growth inhibition by videomicroscopy (in words) (U373 glioblastoma cells [5]): inhibited cancer cell proliferation by inducing cell death; GI50 (U373 glioblastoma cells [6]; apoptosis-resistant U373 human glioblastoma, read-out: MTT-based GI50 value, U373): 300 nM; mechanism of growth inhibition by videomicroscopy (in words) (SKMEL melanoma cells): inhibited cancer cell proliferation by inducing cell death; GI50 (SKMEL-28 melanoma cells; apoptosis-resistant SKMEL human melanoma, read-out: MTT-based GI50 value, SKMEL): 300 nM |
| O=C(c1ccccc1)c1[nH]c2[nH]cnc(=O)c2c1-c1cncc(Br)c1 [Rig9, 6-Benzoyl-5-(5-bromopyridin-3-yl)-1H-pyrrolo[2,3-d]pyrimidin-4(7H)-one] | – | – | – | – | 20 nM | 87 ± 20 nM | 40 nM | 30 nM | 80 ± 25 nM | 20 nM | 20 nM | IC50 [8]: 20 nM; IC50 [9]: 130 nM; IC50 [10]: 90 nM; IC50 [11]: 120 nM |
| O=C(c1ccccc1)c1[nH]c2[nH]cnc(=O)c2c1-c1ccccc1 [Rig35, 6-Benzoyl-5-phenyl-1H-pyrrolo[2,3-d]pyrimidin-4(7H)-one] | – | – | – | – | 10 nM | 40 ± 24 nM | 10 nM | < 10 nM | 35 ± 7 nM | 20 nM | < 10 nM | IC50 (SW620 colon cancer cells): < 1 nM; IC50 (GEO colon cancer cells): 8 nM; IC50 (HCT8 colon cancer cells): < 1 nM; GI50 ([12]; Homo sapiens, MES-SA/Dx5, Table 3, MDR cell line, read-out: GI50 in vitro Values, MES-SA/Dx5): 70 ± 4 nM; variation in the sensitivities of the parental and MDR cell lines ([12]; MES-SA/Dx5 vs MES-SA, in words): only a small variation; IC50 (SW480 colon cancer cells): < 1 nM; GI50 [13]: 30 ± 4 nM |
